Molecular target: HIV-1 PR (Human immunodeficiency virus type 1 group M subtype B, UniProt P04585)
Experiment: HIV-protease inhibitory activity assay (FRET peptide substrate)
Assay type: biochemical
Details: Test Example 1
Outline: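 Inhibition of HIV-1 protease was measured as loss of fluorescence dequenching of a HiLyte Fluor 488/QXL 520 peptide at 2 μmol/L, pH 4.8, room temperature, 60 minute reaction. IC50 was derived by nonlinear four-parameter fitting.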

Row | SMILES | IC50 [nM]
1 | COc1ccc(S(=O)(=O)N(CC(C)C)CC(O)C(Cc2ccc(CN(C)Cc3cccc(-c4sc5c(c4C(=O)O)CC(C)(C)CC5)c3)cc2)NC(=O)OC2COC3(C)OCCC23)cc1 (stereo not drawn) [Compound I-266] | 2.61
2 | COc1ccc(S(=O)(=O)N(CC(C)C)CC(O)C(Cc2ccc(N(CCCCc3ccccc3)Cc3ccccc3-c3sc4c(c3C(=O)O)CC(C)(C)CC4)cc2)NC(=O)OC2COC3(C)OCCC23)cc1 (stereo not drawn) [Compound I-432] | 8.42
3 | COc1ccc(S(=O)(=O)N(CC(C)C)CC(O)C(Cc2ccc(NCc3nc(N4CCCCC4)sc3-c3sc4c(c3C(=O)O)CC(C)(C)CC4)cc2)NC(=O)OC2COC3(C)OCCC23)cc1 (stereo not drawn) [Compound I-737] | 1.99
4 | COc1ccc(S(=O)(=O)N(CC(C)C)CC(O)C(Cc2ccc(NCc3ccc(C(F)(F)F)cc3C(=O)Nc3sc4c(c3C(=O)O)CC(C)(C)CC4)cc2)NC(=O)OC2COC3(C)OCCC23)cc1 (stereo not drawn) [Compound I-690] | 7.7
5 | COc1ccc(S(=O)(=O)N(CC(C)C)CC(O)C(Cc2ccc(N(Cc3ccccc3-c3sc4c(c3C(=O)O)CC(C)(C)CC4)CC3CC3)cc2)NC(=O)OC2COC3(C)OCCC23)cc1 (stereo not drawn) [Compound I-460] | 3.58
6 | CC(C)CN(CC(O)C(Cc1ccc(OCc2cc(C(=O)O)cc(-c3ccc(F)cc3F)c2)cc1)NC(=O)OC1COC2(C)OCCC12)S(=O)(=O)c1ccc2ncsc2c1 (stereo not drawn) [Compound I-60] | 1.6
7 | COc1ccc(S(=O)(=O)N(CC(C)C)CC(O)C(Cc2ccc(NCc3cccc(F)c3C(=O)Nc3sc4c(c3C(=O)O)CC(C)(C)CC4)cc2)NC(=O)OC2COC3(C)OCCC23)cc1 (stereo not drawn) [Compound I-749] | 2.33
8 | COc1ccc(S(=O)(=O)N(CC(C)C)CC(O)C(Cc2ccc(NCc3c(-c4sc5c(c4C(=O)O)CC(C)(C)CC5)ccc(F)c3F)cc2)NC(=O)OC2COC3(C)OCCC23)cc1 (stereo not drawn) [Compound I-279] | 1.6
9 | COc1ccc(S(=O)(=O)N(CC(C)C)CC(O)C(Cc2ccc(OCc3ccccc3-c3oc4c(c3C(=O)O)CCCC4)cc2)NC(=O)OC2COC3OCCC23)cc1 (stereo not drawn) [Compound I-834] | 1.15
10 | COc1ccc(S(=O)(=O)N(CC(C)C)CC(O)C(Cc2ccc(N3CCC(C(=O)N(C)c4sc5c(c4C(=O)O)CC(C)(C)CC5)C3)cc2)NC(=O)OC2COC3OCCC23)cc1 (stereo not drawn) [Compound I-863] | 2.55
11 | COc1ccc(S(=O)(=O)N(CC(C)C)CC(O)C(Cc2ccc(NCc3cc(N4CCCCC4=O)ccc3-c3sc4c(c3C(=O)O)CC(C)(C)CC4)cc2)NC(=O)OC2COC3(C)OCCC23)cc1 (stereo not drawn) [Compound I-729] | 1.64
12 | COc1ccc(S(=O)(=O)N(CC(C)C)CC(O)C(Cc2ccc(N3CCC(Cc4ccccc4-c4sc5c(c4C(=O)O)CC(C)(C)CC5)C3)cc2)NC(=O)OC2COC3(C)OCCC23)cc1 (stereo not drawn) [Compound I-668] | 7.06
13 | CCCCC1(Cc2ccc(COc3ccc(CC(NC(=O)OC4COC5(C)OCCC45)C(O)CN(CC(C)C)S(=O)(=O)c4ccc(OC)cc4)cc3)cc2)C(=O)N(c2ccccc2)N(c2ccccc2)C1=O (stereo not drawn) [Compound I-76] | 1.35
14 | COc1ccc(S(=O)(=O)N(CC2CCCC2)CC(O)C(Cc2ccc(NCc3ccccc3C(=O)Nc3sc4c(c3C(=O)O)CC(C)(C)CC4)cc2)NC(=O)OC2COC3(C)OCCC23O)cc1 (stereo not drawn) [Compound I-892] | 4.06
15 | COc1ccc(S(=O)(=O)N(CC(C)C)CC(O)C(Cc2ccc(NCc3cccc(-c4sc5c(c4C(=O)O)CC(C)(C)CC5)c3OCc3ccccc3)cc2)NC(=O)OC2COC3(C)OCCC23)cc1 (stereo not drawn) [Compound I-558] | 4.99
16 | COc1ccc(S(=O)(=O)N(CC(C)C)CC(O)C(Cc2ccc(OCc3ccccc3-c3ccc4c(O)c(-c5ccc(Oc6ccccc6)cc5)c(=O)[nH]c4c3)cc2)NC(=O)OC2COC3OCCC23)cc1 (stereo not drawn) [Compound I-821] | 2.24
17 | COc1ccc(S(=O)(=O)N(CC(C)C)CC(O)C(Cc2ccc(N3C(=O)c4ccc(-c5sc6c(c5C(=O)O)CC(C)(C)CC6)cc4C3=O)cc2)NC(=O)OC2COC3(C)OCCC23)cc1 (stereo not drawn) [Compound I-621] | 1.84

Row | SMILES | IC50 [nM]
18 | CC1(C)CCc2sc(-c3ccc(CCCN(CC(O)C(Cc4ccccc4)NC(=O)OC4COC5(C)OCCC45)S(=O)(=O)c4ccc5ncsc5c4)cc3)c(C(=O)O)c2C1 (stereo not drawn) [Compound I-164] | 2.07
19 | CC(C)CN(CC(O)C(Cc1ccccc1)NC(=O)OC1COC2OCCC12)S(=O)(=O)c1ccc(NCc2sc3c(c2C(=O)O)CC(C)(C)CC3)cc1 (stereo not drawn) [Compound I-816] | 5.78
20 | COc1ccc(S(=O)(=O)N(CC(C)C)CC(O)C(Cc2ccc(OCc3ccccc3-c3sc(N4CCCC(C)(C)C4)nc3C(=O)O)cc2)NC(=O)OC2COC3OCCC23)cc1 (stereo not drawn) [Compound I-846] | 1.2
21 | COc1ccc(S(=O)(=O)N(CC(C)C)CC(O)C(Cc2ccc(N(C)Cc3cc(Oc4ccccn4)ccc3-c3sc4c(c3C(=O)O)CC(C)(C)CC4)cc2)NC(=O)OC2COC3(C)OCCC23)cc1 (stereo not drawn) [Compound I-686] | 3.6
22 | COc1ccc(S(=O)(=O)N(CC(C)C)CC(O)C(Cc2ccc(NCc3ccc(C)cc3C(=O)Nc3sc4c(c3C(=O)O)CC(C)(C)CC4)cc2)NC(=O)OC2COC3(C)OCCC23)cc1 (stereo not drawn) [Compound I-716] | 3.95
23 | COc1ccc(S(=O)(=O)N(CC(C)C)CC(O)C(Cc2ccc(NCc3cc(-c4sc5c(c4C(=O)O)CC(C)(C)CC5)ccc3F)cc2)NC(=O)OC2COC3(C)OCCC23)cc1 (stereo not drawn) [Compound I-280] | 3.24
24 | COc1ccc(S(=O)(=O)N(CC(C)C)CC(O)C(Cc2ccc(NCc3cc(C(=O)O)c(C)o3)cc2)NC(=O)OC2COC3(C)OCCC23)cc1 (stereo not drawn) [Compound I-317] | 1.86
25 | COc1ccc(S(=O)(=O)N(CC(C)C)CC(O)C(Cc2ccc(OCCn3nc(C)c(-c4sc5c(c4C(=O)O)CC(C)(C)CC5)c3C)cc2)NC(=O)OC2COC3OCCC23)cc1 (stereo not drawn) [Compound I-810] | 1.03
26 | COc1ccc(S(=O)(=O)N(CC(C)C)CC(O)C(Cc2ccc(N(C)Cc3cc(Cl)ccc3C(=O)Nc3sc4c(c3C(=O)O)CC(C)(C)CC4)cc2)NC(=O)OC2COC3(C)OCCC23)cc1 (stereo not drawn) [Compound I-658] | 13.7
27 | COc1ccc(S(=O)(=O)N(CC(C)C)CC(O)C(Cc2ccc(NCc3nc(N4CCOCC4)sc3-c3sc4c(c3C(=O)O)CC(C)(C)CC4)cc2)NC(=O)OC2COC3(C)OCCC23)cc1 (stereo not drawn) [Compound I-738] | 1.8
28 | COc1ccc(S(=O)(=O)N(CC(C)C)CC(O)C(Cc2ccc(COc3ccc(-c4ccc(F)cc4F)cc3C(=O)O)cc2)NC(=O)OC2COC3(C)OCCC23)cc1 (stereo not drawn) [Compound I-63] | 0.89
29 | COc1ccc(S(=O)(=O)N(CC(C)C)CC(O)C(Cc2ccc(N(Cc3ccccn3)Cc3ccccc3-c3sc4c(c3C(=O)O)CC(C)(C)CC4)cc2)NC(=O)OC2COC3(C)OCCC23)cc1 (stereo not drawn) [Compound I-486] | 4.59
30 | COc1ccc(S(=O)(=O)N(CC(C)C)CC(O)C(Cc2ccc(NCc3ccc(C(=O)Nc4sc5c(c4C(=O)O)CC(C)(C)CC5)s3)cc2)NC(=O)OC2COC3(C)OCCC23)cc1 (stereo not drawn) [Compound I-441] | 2.61
31 | COc1ccc(S(=O)(=O)N(CC(C)C)CC(O)C(Cc2ccc(OCc3ccccc3-c3nc(C4=CCC(C)(C)CC4)sc3C(=O)O)cc2)NC(=O)OC2COC3OCCC23)cc1 (stereo not drawn) [Compound I-820] | 0.94
32 | COc1ccc(S(=O)(=O)N(CC(C)C)CC(O)C(Cc2ccc(OCCNC(=O)c3cc(-c4ccc(F)cc4F)ccc3O)cc2)NC(=O)OC2COC3(C)OCCC23)cc1 (stereo not drawn) [Compound I-172] | 1.02
33 | COc1ccc(S(=O)(=O)N(CC(C)C)CC(O)C(Cc2ccc(Oc3ccc(-c4sc5c(c4C(=O)O)CC(C)(C)CC5)c(OC)c3)cc2)NC(=O)OC2COC3(C)OCCC23)cc1 (stereo not drawn) [Compound I-136] | 1.4

Source: patent publication US20170253607A1, “LONG-ACTING HIV PROTEASE INHIBITOR” (Shionogi & Co., Ltd., priority 2014, published 2017)
